Data as given in ChEMBL document CHEMBL1201862, “PubChem BioAssay data set” (2004).
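Compound exposure: 48 hours, 5 concentrations, 96-well plates. GI50 is the concentration that inhibits growth by half.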 The source made the active and inactive calls. Rule as the data show it: active = GI50 up to about 1.1 µM and inactive = higher.

Assays:
Assay in all cases: NCI tumour cell line growth inhibition, 48 h
EKVX = test system: EKVX
CCRF-CEM = test system: CCRF-CEM
UO-31 = test system: UO-31
K562 = test system: K562
NCI-H23 = test system: NCI-H23
M14 = test system: M14
OVCAR-3 = test system: OVCAR-3
RXF 393 = test system: RXF 393
UACC-257 = test system: UACC-257
SW-620 = test system: SW-620
OVCAR-5 = test system: OVCAR-5
OVCAR-8 = test system: OVCAR-8
Hs-578T = test system: Hs-578T
PC-3 = test system: PC-3
MDA-MB-435 = test system: MDA-MB-435
Malme-3M = test system: Malme-3M
RPMI-8226 = test system: RPMI-8226
SN12C = test system: SN12C
DU-145 = test system: DU-145
MCF7 = test system: MCF7

Row | Compound | GI50 (EKVX) | GI50 (CCRF-CEM) | GI50 (UO-31) | GI50 (K562) | GI50 (NCI-H23) | GI50 (M14) | GI50 (OVCAR-3) | GI50 (RXF 393) | GI50 (UACC-257) | GI50 (SW-620) | GI50 (OVCAR-5) | GI50 (OVCAR-8) | GI50 (Hs-578T) | GI50 (PC-3) | GI50 (MDA-MB-435) | GI50 (Malme-3M) | GI50 (RPMI-8226) | GI50 (SN12C) | GI50 (DU-145) | GI50 (MCF7)
1 | COc1cc(/C=C/c2ccc(/C=C/c3cc(OC)c(OC)c(OC)c3)cc2)cc(OC)c1OC | > 46.9 µM (inactive) | > 100 µM (inactive) | 36.1 µM (inactive) | 96.2 µM (inactive) | 12.3 µM (inactive) | 39.3 µM (inactive) | 25.2 µM (inactive) | 6.68 µM (inactive) | 58.7 µM (inactive) | > 84.9 µM (inactive) | 60.5 µM (inactive) | 12.2 µM (inactive) | 18.9 µM (inactive) | 27.5 µM (inactive) | 55.2 µM (inactive) | 20.3 µM (inactive) | 41.6 µM (inactive) | 56.8 µM (inactive) | 88.7 µM (inactive) | > 100 µM (inactive)
2 | O=c1[nH]c2cc(C(F)(F)F)ccc2nc1CBr | 15.8 µM (inactive) | 1.04 µM (active) | 3.4 µM (inactive) | 5.73 µM (inactive) | 15.4 µM (inactive) | 8.3 µM (inactive) | 9.77 µM (inactive) | 12.4 µM (inactive) | 14.7 µM (inactive) | 9.59 µM (inactive) | 14.1 µM (inactive) | 10.4 µM (inactive) | 22 µM (inactive) | 13.1 µM (inactive) | 11.4 µM (inactive) | 14 µM (inactive) | 5.97 µM (inactive) | 9.31 µM (inactive) | 14.3 µM (inactive) | 4.97 µM (inactive)
3 | COc1ccc(-c2oc3c(OC)c(OC)c(OC)c(O)c3c(=O)c2OC)cc1OC | 37.6 µM (inactive) | 16.9 µM (inactive) | 9.06 µM (inactive) | 10.6 µM (inactive) | 31.1 µM (inactive) | 26.4 µM (inactive) | 22.7 µM (inactive) | 17.4 µM (inactive) | 32.1 µM (inactive) | 20.8 µM (inactive) | 35.6 µM (inactive) | 25.4 µM (inactive) | 3.01 µM (inactive) | 18 µM (inactive) | 4.69 µM (inactive) | 46.8 µM (inactive) | 16.7 µM (inactive) | 26.2 µM (inactive) | 36.2 µM (inactive) | 3.97 µM (inactive)
4 | O[C@H]1[C@H]2[C@H](O)C[C@H](CCOCc3ccccc3)CN2C[C@H]1O | > 100 µM (inactive) | > 100 µM (inactive) | > 100 µM (inactive) | > 100 µM (inactive) | > 100 µM (inactive) | > 100 µM (inactive) | > 100 µM (inactive) | > 100 µM (inactive) | > 100 µM (inactive) | > 100 µM (inactive) | > 100 µM (inactive) | > 100 µM (inactive) | > 100 µM (inactive) | > 100 µM (inactive) | > 100 µM (inactive) | > 100 µM (inactive) | > 100 µM (inactive) | > 100 µM (inactive) | > 100 µM (inactive) | > 100 µM (inactive)
5 | O=C1C=CC2(O[C@H](C3CCCCC3)[C@@H](C3CCCCC3)O2)C(SC(=O)c2ccccc2)C1 (stereo not given in full) | 6.1 µM (inactive) | 1.26 µM (inactive) | 1.55 µM (inactive) | 1.4 µM (inactive) | 2.47 µM (inactive) | 2.14 µM (inactive) | 0.891 µM (active) | 1.01 µM (active) | 7.05 µM (inactive) | 1.91 µM (inactive) | 1.88 µM (inactive) | 1.73 µM (inactive) | 1.92 µM (inactive) | 2.23 µM (inactive) | 1.62 µM (inactive) | 3.66 µM (inactive) | 0.968 µM (active) | 1.82 µM (inactive) | 2.44 µM (inactive) | 1.48 µM (inactive)
6 | Cc1c(S(=O)(=O)O)ccc(/N=N/c2c(O)c(C(=O)O)cc3ccccc23)c1Cl | > 100 µM (inactive) | > 100 µM (inactive) | > 100 µM (inactive) | > 100 µM (inactive) | > 100 µM (inactive) | > 100 µM (inactive) | > 100 µM (inactive) | > 100 µM (inactive) | > 100 µM (inactive) | > 100 µM (inactive) | > 100 µM (inactive) | > 100 µM (inactive) | > 62.1 µM (inactive) | > 100 µM (inactive) | > 100 µM (inactive) | > 63.5 µM (inactive) | > 100 µM (inactive) | > 100 µM (inactive) | > 100 µM (inactive) | > 100 µM (inactive)
7 | CCCC(=O)NC(C(=O)OCC)(N1CCOCC1)C(F)(F)F (stereo not given) | > 100 µM (inactive) | > 100 µM (inactive) | > 100 µM (inactive) | > 100 µM (inactive) | > 100 µM (inactive) | > 100 µM (inactive) | > 100 µM (inactive) | > 100 µM (inactive) | > 100 µM (inactive) | > 100 µM (inactive) | > 100 µM (inactive) | > 100 µM (inactive) | > 100 µM (inactive) | > 100 µM (inactive) | > 100 µM (inactive) | > 100 µM (inactive) | > 100 µM (inactive) | > 100 µM (inactive) | > 100 µM (inactive) | > 100 µM (inactive)
8 | COc1ccc(/C=C2\N/C(=N\N=C/C(O)C(O)C(O)C(O)CO)NC2=O)cc1 (stereo not given) | > 100 µM (inactive) | 38.1 µM (inactive) | 91 µM (inactive) | 62.8 µM (inactive) | 23.6 µM (inactive) | 19.4 µM (inactive) | 18.6 µM (inactive) | 56.5 µM (inactive) | 30.1 µM (inactive) | 76 µM (inactive) | > 100 µM (inactive) | 32.4 µM (inactive) | 26.9 µM (inactive) | 26.2 µM (inactive) | 26.2 µM (inactive) | 23.1 µM (inactive) | > 100 µM (inactive) | 23.9 µM (inactive) | 30.4 µM (inactive) | 23.1 µM (inactive)
